SMILES strings stand for the structures. Read-outs that look alike come from different tables or passages of the source. Bounds are passed on as bounds.

In one assay the test system is U373. Briefly: MTT-based cytotoxicity assay, U373. Conditions: Homo sapiens, U373 MG, 72 h. In kind it is cell-based. The procedure:
(§1) A dose-response analysis of BMT9 (concentrations ranging from 4.5 µM-18 µM), BCNU (from 150 µM-500 µM) and TMZ (350 µM-700 µM) was performed in two conventional glioblastoma cell lines (T98G, U373) and the GNS cell line G144 by MTT-based cytotoxicity assays (Figure 5A-D). Cells were seeded on p96-well plates and treated with the different compounds for 72 h. Then, the MTT reagent (3-(4,5-Dimethyl-2-thiazolyl)-2,5-diphenyl-2H-tetrazolium bromide diluted in PBS to a concentration of 1mg/ml), was added to each well to a final concentration of 0.33mg/ml, and incubated for 3 h at 37°C. After that, the media was removed, and formazan crystals were solubilized with DMSO. Absorbance was measured at 560 nm using a "Synergy HT" plate reader (Biotek). In the graphs, the Y axis represents the percentage of cell viability relative to non-treated cells. The IC50, when reached are marked by a rectangle. DMSO treatment had no effect on cell viability.
Background: Tetrazolium assays rely on reduction of a dye to a coloured formazan, in cell work by metabolically active cells.

The subject of assay [1] is G144. Conditions: called 'known'; cell line not stated, used in G144 parental and resistant clone experiment; cited from earlier work.
Another assay deals with T98G. Briefly: MTT-based cytotoxicity assay, T98G. It is filed as cell-based. Conditions: Homo sapiens, 72 h. The method, then: as §1
For assay [2], the system named is G144. Briefly: MTT-based cytotoxicity assay, G144. The settings on record: Homo sapiens, 72 h, G144, MTT. It is filed as cell-based, human. The method, then:
as §1
Previous studies have reported that the molecular signature of the GNSC G144 cell line corresponds to a 'proneural' subtype of GB with NSC features (Pollard et al., 2009; Danovi et al., 2013). Thus, to test BMT9 specificity we compared cellular viability when treating CD133-positive cells (either GNSCs or normal human fetal neural stem cells-NSC) versus CD133-negative human embryonic fibroblast (HEFs) (Figure 8A). MTT-based cytotoxicity assay (Figure 7B-D) were performed as previously described.
While the first line therapy of gliomas has proven its effectiveness and improved clinical outcomes, acquired chemoresistance to alkylating agents has been identified as a major cause of treatment failure (Sarkaria et al., 2008). In a murine model of GB, long-term treatment with subtoxic TMZ doses enriched the side population of cancer stem cells, increasing the tumor aggressiveness (Bleau et al., 2009). Thus, we generated TMZ-resistant G144-clones that were selected upon treatment with TMZ either at 500 µM or 700 µM for several months (R500 and R700, respectively). The obtained clones maintained CD133 stem marker expression (Figure 9A). We then analyzed BMT9 dose-dependent effect on cell viability, by MTT assay, comparing the resistant clones to parental cells.

For another assay, the system named is GNSCs. The assay is described as follows: MTT assay of BMT9 analogues against GNSCs. It is filed as cell-based. Conditions: 48 and 72 h. The method, then: as §1
The cytotoxicity of two BMT9 analogues synthetized by Instituto Biomar S.A. was evaluated by MTT assays.

A further assay deals with P1-TP73 promoter. Briefly: P1-p73-Fluc-DsRed reporter validation in HCT116 p53-/- cells. The settings on record: HCT116 p53-/- cells transfected with P1-p73-FlucDsRed vector, cultured with Doxo, 24 and 48 hours. In kind it is cell-based, human. An excerpt:
A bimodal reporter vector, named P1-p73-Fluc-DsRed2, was engineered based on the previously published lentiviral system LV-CMV-Fluc-dsRed2 (Shah et al., 2008). […] Using this backbone, the CMV promoter was swapped for a 930 bp fragment of the human P1-TP73 promoter contained in the P1-p73-Luc-pGL3-Basic vector (-859 to +71 of TP73 gene) (Seelan et al., 2002) (Figure 1A'). To validate the generated system, we used the HCT116 p53-/- cells in which endogenous TAp73 expression can be induced by the genotoxic drug doxorubicin (Doxo), at RNA and protein levels (Figure 1B and Vossio et al., 2002, respectively). Next, we tested whether the engineered reporter vector could monitor these changes in endogenous TAp73 RNA levels. For this purpose, HCT116 p53-/- cells were either non-transfected (NT) or transfected with P1-p73-FlucDsRed vector and cultured with Doxo (black square fill pattern bar) or without treatment (grey bar) for the indicated time points (Figure 1C), at which the fluorescence levels (DsRed, Y axis) were measured by fluorimetry.
As depicted in Figure 1C, we detected an increase in endogenous P1-promoter activity after 24 and 48 hours of culture […].

As usually defined, the IC50 is the concentration at which inhibition is half-maximal. With `O=NN(CCCl)C(=O)NCCCl` [BCNU, carmustine, reference compound], the IC50 is 250 µM in the assay on U373, 500 µM in the assay on G144 [1], 500 µM with T98G and 250 µM in the assay on G144 [2].
Take `C=C1C2CCC(C)(C3COc4c(C=O)c5c(c(OC)c4C3O)C(=O)OC5O)C1CCC2(C)C` (stereo not shown) [BMT9.2]: the IC50 in the assay with GNSCs is not above 4.5 µM.
Consider `C=C1C2CCC(C)(C3COc4c(C=O)c5c(c(OC)c4C3O)C(=O)OC5OC(C)=O)C1CCC2(C)C` (stereo not shown) [BMT9.5], for which the IC50 in the assay with GNSCs is not above 4.5 µM.
For `COc1cccc2c1C(=O)c1c(O)c3c(c(O)c1C2=O)C[C@@](O)(C(=O)CO)C[C@@H]3O[C@H]1C[C@H](N)[C@H](O)[C@H](C)O1` [Doxo, doxorubicin], in the assay on P1-TP73 promoter, the “reporter activity (DsRed fluorescence)” value was “increase in reporter activity that was sustained after 48 hours”.

These data come from patent publication EP4349409A1, “COMPOUNDS FOR THE MANAGEMENT OF CELL STEMNESS AND INVASION IN CANCER AND RELATED DISEASES” (Instituto Biomar S.A., priority 2022, dated 2024).
